# Assay results from US20050131209A1, “Crystallized hnf4 gamma ligand binding domain polypeptide and screening methods employing same” (priority 2001, published 2005).
# “Also recorded” adds a separate entry of the source.
# Columns and labels:
# [1] = biological target: T1, HNF4α LBD / CBP (CREB-binding protein) (Homo sapiens, UniProt P41235); test: FRET assay of CBP recruitment to HNF4α LBD; type: biochemical; conditions: cell-free FRET; for Kd: dose dependent, read-out: apparent binding constant (increase of CBP-HNF4 interaction); for effect on CBP recruitment / association between HNF4 and CBP: ligands incubated 15 minutes at 21° C.
# T1 construct: HNF4α amino acids 141465 and HNF4γ amino acids 102-408; biotin (chemical biotinylation); made in house; host or cells: E. coli
# T1 sequence (P41235 150-474 limits assumed): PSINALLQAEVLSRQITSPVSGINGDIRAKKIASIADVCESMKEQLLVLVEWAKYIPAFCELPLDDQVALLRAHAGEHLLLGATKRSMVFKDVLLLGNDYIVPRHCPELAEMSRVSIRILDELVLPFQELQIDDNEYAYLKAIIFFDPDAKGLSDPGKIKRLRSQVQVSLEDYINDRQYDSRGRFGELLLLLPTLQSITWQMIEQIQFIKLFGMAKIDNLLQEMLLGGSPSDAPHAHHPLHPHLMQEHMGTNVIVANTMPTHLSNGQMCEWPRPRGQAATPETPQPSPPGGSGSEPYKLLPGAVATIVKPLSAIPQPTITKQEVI
# Experimental: (§1) To confirm that fatty acids were functional HNF4 ligands, HNF4α and HNF4γ were tested for their ability to recruit the nuclear receptor co-activator CREB binding protein, a known activation partner (Wang et al., (1998) J. Biol. Chem. 273: 30847-50; Dell & Hadzopoulou-Cladaras, (1999) J. Biol. Chem. 274: 9013-21). A FRET (fluorescent resonance energy transfer) assay was employed using purified recombinant CREB-binding protein (CBP) and HNF4 LBD (Zhou et al., (1998) Mol. Endocrinol. 12: 1594-1604). Long-chain fatty acids (LCFA) with increasing carbon lengths from 12 to 18 carbon methylene units were tested for their ability to modulate the association between HNF4 and CBP in a dose dependent manner. […] Palmitic and stearic acids increased the allosteric interaction between CBP and HNF4, with apparent binding constants of 1 μM.
# (§2) The reported ligands for HNF4α are fatty acyl-CoA thioesters (Hertz et al., (1998) Nature (London) 392: 512-16), which are much larger than other nuclear receptor ligands (Bogan et al., (1998) Nat. Struct. Biol. 5: 679-81). […] Shorter fatty acyl-CoAs had no effect on CBP association.
# (§3) A cell-free fluorescent resonance energy transfer (FRET) assay was used to measure the association between the amino portion of CBP (CREB-binding protein) (residues 54-457) and the HNF4 LBD (HNF4α amino acids 141465 and HNF4γ amino acids 102-408) (Zhou et al., (1998) Mol. Endocrinol 12: 1594-1604). Proteins were expressed in E. coli, purified to homogeneity, and biotinylated. CBP, the fluorescence donor, was labeled with a europium chelate, and HNF4 LBD was labeled with the streptavidin-conjugated fluorophore allophycocyanin (Molecular Probes, Eugene, Oreg.). Labeled HNF4 LBD and CBP were incubated together with ligands for 15 minutes at 21° C. before assaying. A small basal level was observed, as depicted in FIG. 3.
# [2] = biological target: T2, HNF4α (Homo sapiens, UniProt P41235); test: GC/MS analyses of receptor extracts, HNF4α; type: binding
# T2 sequence (P41235 1-474): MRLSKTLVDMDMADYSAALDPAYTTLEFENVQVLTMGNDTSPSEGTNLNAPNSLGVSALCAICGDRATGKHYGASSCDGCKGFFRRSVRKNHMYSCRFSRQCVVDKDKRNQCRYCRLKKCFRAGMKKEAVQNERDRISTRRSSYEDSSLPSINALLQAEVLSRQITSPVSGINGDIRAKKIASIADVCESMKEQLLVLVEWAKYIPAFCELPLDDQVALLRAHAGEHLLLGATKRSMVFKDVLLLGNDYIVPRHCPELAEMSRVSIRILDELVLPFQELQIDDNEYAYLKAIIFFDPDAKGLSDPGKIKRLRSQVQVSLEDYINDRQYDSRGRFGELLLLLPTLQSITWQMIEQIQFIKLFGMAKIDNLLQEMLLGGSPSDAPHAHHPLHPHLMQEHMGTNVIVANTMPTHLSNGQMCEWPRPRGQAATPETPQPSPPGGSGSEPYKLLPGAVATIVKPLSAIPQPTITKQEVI
# From the text: Palmitic acid forms hydrogen bonds with the side chain of arginine 186, and with the backbone nitrogen of glycine 197 (not shown). Alanine 215 corresponds to serine 256 in HNF4α. Because serine can form hydrogen bonds to the ligand, the specificity is different for the two receptor subtypes. […] Valine 214 corresponds to valine 255 in HNF4α, and is one of the mutations associated with MODY, Type 1.
# [3] = biological target: T3, HNF4γ LBD / CBP (CREB-binding protein) (Homo sapiens, UniProt Q14541); test: FRET assay of CBP recruitment to HNF4γ LBD; type: biochemical; conditions: cell-free FRET; for Kd: dose dependent, read-out: apparent binding constant (increase of CBP-HNF4 interaction); for effect on CBP recruitment / association between HNF4 and CBP: ligands incubated 15 minutes at 21° C.
# T3 construct: HNF4γ amino acids 102-408; biotin (chemical biotinylation); made in house; host or cells: E. coli
# T3 sequence (Q14541 102-408): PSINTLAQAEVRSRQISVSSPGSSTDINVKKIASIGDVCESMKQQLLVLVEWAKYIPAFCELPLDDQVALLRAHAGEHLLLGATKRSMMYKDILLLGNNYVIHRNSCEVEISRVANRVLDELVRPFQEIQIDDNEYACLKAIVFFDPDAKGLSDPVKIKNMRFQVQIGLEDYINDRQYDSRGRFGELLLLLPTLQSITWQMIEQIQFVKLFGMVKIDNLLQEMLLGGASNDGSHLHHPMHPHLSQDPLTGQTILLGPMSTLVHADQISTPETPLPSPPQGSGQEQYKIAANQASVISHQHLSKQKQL
# Experimental: as §1, §2, §3
# [4] = biological target: T4, HNF4γ LBD (Homo sapiens, UniProt Q14541); test: GC/MS identification of fatty acids bound to purified HNF4γ LBD (extract); type: binding; conditions: lipid extract of purified HNF4γ LBD, methyl esters, CI and EI
# T4 construct: HNF4γ amino acids 102-408; made in house; host or cells: E. coli BL21 (DE3), vector pRSETa
# T4 sequence (Q14541 102-408): T3 sequence (Q14541 102-408)
# Experimental: The description of the bound ligand from the structural data led to the belief that the compound was a fatty acid. Analytical methods were used to obtain a definitive identification of the ligand. First, bound ligand(s) was separated from a purified preparation of HNF4γ LBD by liquid-liquid extraction (Folch et al., (1957) J. Biol. Chem. 226: 497-509). The extract was then treated with 3% (v/v) acetyl chloride in methanol. This reagent converts fatty acids to their corresponding fatty acid methyl esters (FAME). The derivatized sample was then analyzed by gas chromatography/mass spectrometry (GC/MS) using both electron impact ionization (EI) and chemical ionization (CI) in separate analyses. The constituents of the extract were identified by comparing the GC/MS data for the extract with data for standard fatty acids, acquired likewise.
# The CI mass spectra for peaks a through g all show a protonated molecular ion ([M+H]^+) along with a fragment ion at a mass-to-charge (m/z) value 32 Da below the protonated molecular ion. […]
# The second column lists the protonated molecular ion detected of each labeled peak in FIG. 4. […]
# Lipids were extracted from an aliquot of HNF4γ LBD with chloroform/methanol 2:1 (v/v). […] The derivatized sample was then analyzed by GC/MS on a Shimadzu GC-17A QP-5050A instrument. […]
Kd [1] [µM],binding to HNF4α by GC/MS of receptor extracts [2],Kd [3] [µM],fatty acid found in HNF4γ extract by GC/MS [4],SMILES,effect on CBP recruitment / association between HNF4 and CBP [1],effect on CBP recruitment / association between HNF4 and CBP [3]
1,binds,1,most abundant component,CCCCCCCCCCCCCCCC(=O)O [palmitic acid],functional activators; also recorded: increased,functional activators; also recorded: increased
,,,,CCCCCCCCCCCCCCCC(=O)SCCNC(=O)CCNC(=O)[C@H](O)C(C)(C)COP(=O)(O)OP(=O)(O)OC[C@H]1O[C@@H](n2cnc3c(N)ncnc32)[C@H](O)[C@@H]1OP(=O)(O)O [palmitoyl-CoA],decreased the basal level,decreased the basal level
1,binds,1,,CCCCCCCCCCCCCCCCCC(=O)O [stearic acid],functional activators; also recorded: increased,functional activators; also recorded: increased
,,,,CCCCCCCCCCCCCCCCCC(=O)SCCNC(=O)CCNC(=O)[C@H](O)C(C)(C)COP(=O)(O)OP(=O)(O)OC[C@H]1O[C@@H](n2cnc3c(N)ncnc32)[C@H](O)[C@@H]1OP(=O)(O)O [steroyl-CoA],decreased the basal level,decreased the basal level
